Where a SMILES comes first, the peptide text is derived from it. Bridges are numbered along the chain shown (N, C = ends). [ ]: non-standard residue; d: D form. The star is where a group is joined. Phe(4-COOH) = N[C@@H](Cc1ccc(C(=O)O)cc1)C(=O)O; Bip = N[C@@H](Cc1ccc(-c2ccccc2)cc1)C(=O)O; Phe(3-Me) = Cc1cccc(C[C@H](N)C(=O)O)c1; Val(3-OH) = CC(C)(O)[C@H](N)C(=O)O; Cha = N[C@@H](CC1CCCCC1)C(=O)O; Cit = NC(=O)NCCC[C@H](N)C(=O)O; Hpra = C#CCC[C@H](N)C(=O)O; dOrn = NCCC[C@@H](N)C(=O)O; dDab = NCC[C@@H](N)C(=O)O; Carboxymethyl = O=C(O)C*; Orn = NCCC[C@H](N)C(=O)O; Pra = C#CC[C@H](N)C(=O)O; dDap = NC[C@@H](N)C(=O)O; Dab = NCC[C@H](N)C(=O)O; Dap = NC[C@H](N)C(=O)O; X9 = c1cn(CCCN*)cn1

What is called IC50 is the concentration at which inhibition is half-maximal.

T1 sequence (Q15116 25-288): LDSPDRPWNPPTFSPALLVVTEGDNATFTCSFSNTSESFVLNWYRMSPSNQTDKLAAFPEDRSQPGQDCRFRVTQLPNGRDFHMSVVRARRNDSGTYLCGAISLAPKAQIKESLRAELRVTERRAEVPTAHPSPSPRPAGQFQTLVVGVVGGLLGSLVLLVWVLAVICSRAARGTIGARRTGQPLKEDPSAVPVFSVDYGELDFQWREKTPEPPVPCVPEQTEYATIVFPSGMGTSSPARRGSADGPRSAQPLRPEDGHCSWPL

The experiment addresses T1, human PD-1 / PD-L1-Ig binding on Jurkat cell line over-expressing human PD-1 (Jurkat-PD-1) (Homo sapiens, UniProt Q15116).
T1 construct: expressed in transfected cells; host or cells: Jurkat
The experiment in a line: Jurkat-PD-1 Cell Binding High-Content Screening Assay (CBA). In kind it is cell-based. Particulars: Jurkat-PD-1 cells, PE-labeled PD-L1-Ig 20 nM final; read-out: Jurkat HPD1_PDL1 IC50. Put shortly:
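Jurkat cells over-expressing human PD-1, in DMEM/10% FCS, pre-incubated with compound 2 h at 37° C. PE-labeled human PD-L1-Ig (20 nM final) added for 1 h; cells fixed in paraformaldehyde with Hoechst 33342 nuclear stain, washed, and bound fluorescence quantified by high-content imaging.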
Take `C#CC[C@H](NC(=O)[C@H](CCN)NC(=O)[C@@H]1CSCC(=O)N[C@@H](CCCN)C(=O)N[C@@H](Cc2ccc(C(=O)O)cc2)C(=O)N[C@@H](CC(=O)O)C(=O)N[C@@H](Cc2cccc(C)c2)C(=O)N[C@@H](Cc2ccc(C(=O)O)cc2)C(=O)N[C@@H](Cc2ccc(-c3ccccc3)cc2)C(=O)N[C@@H](Cc2ccc(C(=O)O)cc2)C(=O)N[C@@H](CCCN)C(=O)N[C@H](CC(C)C)C(=O)N[C@@H](CCN)C(=O)N[C@@H](CC2CCCCC2)C(=O)N[C@@H](C(C)(C)O)C(=O)N[C@@H](CCCN)C(=O)N1)C(N)=O` [Compound 1864] ({CH2CO}-[Orn][Phe(4-COOH)]D[Phe(3-Me)][Phe(4-COOH)][Bip][Phe(4-COOH)][Orn][dL][Dab][Cha][Val(3-OH)][Orn]C[Dab][Pra]-NH2; thioether N-14): the IC50 worked out at 0.0165 µM. For `C#CC[C@H](NC(=O)[C@H](CCN)NC(=O)[C@@H]1CSCC(=O)N[C@@H](CCN)C(=O)N[C@@H](Cc2ccc(C(=O)O)cc2)C(=O)N[C@@H](CC(=O)O)C(=O)N[C@@H](Cc2cccc(C)c2)C(=O)N[C@@H](Cc2ccc(C(=O)O)cc2)C(=O)N[C@@H](Cc2ccc(-c3ccccc3)cc2)C(=O)N[C@@H](Cc2ccc(C(=O)O)cc2)C(=O)N[C@@H](CCCN)C(=O)N[C@H](CC(C)C)C(=O)N[C@@H](CCN)C(=O)N[C@@H](CC2CCCCC2)C(=O)N[C@@H](C(C)(C)O)C(=O)N[C@@H](CO)C(=O)N1)C(N)=O` [Compound 1865] ({CH2CO}-[Dab][Phe(4-COOH)]D[Phe(3-Me)][Phe(4-COOH)][Bip][Phe(4-COOH)][Orn][dL][Dab][Cha][Val(3-OH)]SC[Dab][Pra]-NH2; thioether N-14) the value was 0.012 µM; for `CC(C)C[C@@H]1NC(=O)[C@H](Cc2c[nH]c3ccccc23)NC(=O)[C@H](CC(=O)O)NC(=O)[C@H](Cc2ccc(O)cc2)NC(=O)[C@H](Cc2ccccc2)NC(=O)CSC[C@@H](C(=O)N[C@@H](C)C(N)=O)NC(=O)[C@H](CO)NC(=O)[C@H](C(C)C)NC(=O)[C@H](CC(C)C)NC(=O)[C@H](CC(N)=O)NC(=O)[C@@H](C)NC(=O)[C@@H](CCCCN)NC(=O)[C@H](C(C)C)NC(=O)[C@H](Cc2ccc(-c3ccccc3)cc2)NC1=O` [Compound 2000] ({CH2CO}-FYDWL[Bip]V[dK][dA]NLVSCA-NH2; thioether N-14), 0.0394 µM; for `CC(C)C[C@@H]1NC(=O)[C@H](Cc2c[nH]c3ccccc23)NC(=O)[C@H](CC(=O)O)NC(=O)[C@H](Cc2ccc(O)cc2)NC(=O)[C@H](Cc2ccccc2)NC(=O)CSC[C@@H](C(=O)N[C@@H](C)C(N)=O)NC(=O)[C@H](CO)NC(=O)[C@H](C(C)C)NC(=O)[C@H](CC(C)C)NC(=O)[C@H](CC(N)=O)NC(=O)[C@@H](C)NC(=O)[C@@H](CCCN)NC(=O)[C@H](C(C)C)NC(=O)[C@H](Cc2ccc(-c3ccccc3)cc2)NC1=O` [Compound 2001] ({CH2CO}-FYDWL[Bip]V[dOrn][dA]NLVSCA-NH2; thioether N-14), 0.0421 µM. In the case of `CC(C)C[C@@H]1NC(=O)[C@H](Cc2c[nH]c3ccccc23)NC(=O)[C@H](CC(=O)O)NC(=O)[C@H](Cc2ccc(O)cc2)NC(=O)[C@H](Cc2ccccc2)NC(=O)CSC[C@@H](C(=O)N[C@@H](C)C(N)=O)NC(=O)[C@H](CO)NC(=O)[C@H](C(C)C)NC(=O)[C@H](CC(C)C)NC(=O)[C@H](CC(N)=O)NC(=O)[C@@H](C)NC(=O)[C@@H](CN)NC(=O)[C@H](C(C)C)NC(=O)[C@H](Cc2ccc(-c3ccccc3)cc2)NC1=O` [Compound 2002] ({CH2CO}-FYDWL[Bip]V[dDap][dA]NLVSCA-NH2; thioether N-14) it was 0.0541 µM; in that of `CC(C)C[C@@H]1NC(=O)[C@H](Cc2c[nH]c3ccccc23)NC(=O)[C@H](CC(=O)O)NC(=O)[C@H](Cc2ccc(O)cc2)NC(=O)[C@H](Cc2ccccc2)NC(=O)CSC[C@@H](C(=O)N[C@@H](C)C(N)=O)NC(=O)[C@H](CO)NC(=O)[C@H](C(C)C)NC(=O)[C@H](CC(C)C)NC(=O)[C@H](CC(N)=O)NC(=O)[C@@H](C)NC(=O)[C@@H](CCN)NC(=O)[C@H](C(C)C)NC(=O)[C@H](Cc2ccc(-c3ccccc3)cc2)NC1=O` [Compound 2003] ({CH2CO}-FYDWL[Bip]V[dDab][dA]NLVSCA-NH2; thioether N-14), 0.035 µM. In the case of `CCNC(=O)[C@H](C)NC(=O)[C@@H]1CSCC(=O)N[C@@H](Cc2ccncc2)C(=O)N[C@@H](Cc2ccc(C(=O)O)cc2)C(=O)N[C@@H](CC(=O)O)C(=O)N[C@@H](Cc2cccc(C)c2)C(=O)N[C@@H](C(C)C)C(=O)N[C@@H](Cc2ccc(-c3ccccc3)cc2)C(=O)N[C@@H]([C@@H](C)CC)C(=O)N[C@@H](CCCN)C(=O)N[C@H](CC(C)C)C(=O)N[C@@H](CCN)C(=O)N[C@@H](CC2CCCCC2)C(=O)N[C@@H](C(C)C)C(=O)N[C@@H]([C@@H](C)O)C(=O)N1` [Compound 2004] it was 0.0421 µM.

As to `Cc1cccc(C[C@@H]2NC(=O)[C@H](CC(=O)O)NC(=O)[C@H](Cc3ccc(C(=O)O)cc3)NC(=O)[C@H](CN)NC(=O)CSC[C@@H](C(=O)N[C@@H](C)C(=O)NCCCn3ccnc3)NC(=O)[C@H]([C@@H](C)O)NC(=O)[C@H](C(C)C)NC(=O)[C@H](CC(C)C)NC(=O)[C@H](CCN)NC(=O)[C@@H](CC(C)C)NC(=O)[C@H](CCCN)NC(=O)[C@H](C(C)C)NC(=O)[C@H](Cc3ccc(-c4ccccc4)cc3)NC(=O)[C@H](C(C)C)NC2=O)c1` [Compound 2005] ({CH2CO}-[Dap][Phe(4-COOH)]D[Phe(3-Me)]V[Bip]V[Orn][dL][Dab]LVTCA-X9; thioether N-14), the IC50 stood at 0.0051 µM. For `Cc1cccc(C[C@@H]2NC(=O)[C@H](CC(=O)O)NC(=O)[C@H](Cc3ccc(OCC(=O)O)cc3)NC(=O)[C@H](CN)NC(=O)CSC[C@@H](C(=O)N[C@@H](C)C(=O)NCc3cnc(C)cn3)NC(=O)[C@H]([C@@H](C)O)NC(=O)[C@H](C(C)C)NC(=O)[C@H](CC3CCCCC3)NC(=O)[C@H](CCN)NC(=O)[C@@H](CC(C)C)NC(=O)[C@H](CCCN)NC(=O)[C@H](CCCNC(N)=O)NC(=O)[C@H](Cc3ccc(-c4ccccc4)cc3)NC(=O)[C@H](C(C)C)NC2=O)c1` [Compound 2006] the value was 0.0148 µM; for `CC[C@H](C)[C@@H]1NC(=O)[C@H](Cc2ccc(-c3ccccc3)cc2)NC(=O)[C@H](C(C)C)NC(=O)[C@H](Cc2cccc(C)c2)NC(=O)[C@H](CC(=O)O)NC(=O)[C@H](Cc2ccc(C(=O)O)cc2)NC(=O)[C@H](Cc2ccncc2)NC(=O)CSC[C@@H](C(=O)N[C@@H](CCN)C(N)=O)NC(=O)[C@H]([C@@H](C)O)NC(=O)[C@H](C(C)C)NC(=O)[C@H](CC2CCCCC2)NC(=O)[C@H](CCN)NC(=O)[C@@H](CC(C)C)NC(=O)[C@H](CCCN)NC1=O` [Compound 2007], 0.0243 µM; for `Cc1cccc(C[C@@H]2NC(=O)[C@H](CC(=O)O)NC(=O)[C@H](Cc3ccc(C(=O)O)cc3)NC(=O)[C@H](CN)NC(=O)CSC[C@@H](C(=O)N[C@@H](CCN)C(N)=O)NC(=O)[C@H]([C@@H](C)O)NC(=O)[C@H](C(C)C)NC(=O)[C@H](CC(C)C)NC(=O)[C@H](CCN)NC(=O)[C@@H](CC(C)C)NC(=O)[C@H](CCCN)NC(=O)[C@H](C(C)C)NC(=O)[C@H](Cc3ccc(-c4ccccc4)cc3)NC(=O)[C@H](C(C)C)NC2=O)c1` [Compound 2008] ({CH2CO}-[Dap][Phe(4-COOH)]D[Phe(3-Me)]V[Bip]V[Orn][dL][Dab]LVTC[Dab]-NH2; thioether N-14), 0.0199 µM.

As to `CCNC(=O)[C@H](CCN)NC(=O)[C@@H]1CSCC(=O)N[C@@H](CN)C(=O)N[C@@H](Cc2ccc(OCC(=O)O)cc2)C(=O)N[C@@H](CC(=O)O)C(=O)N[C@@H](Cc2cccc(C)c2)C(=O)N[C@@H](C(C)C)C(=O)N[C@@H](Cc2ccc(-c3ccccc3)cc2)C(=O)N[C@@H](CCCNC(N)=O)C(=O)N[C@@H](CCCN)C(=O)N[C@H](CC(C)C)C(=O)N[C@@H](CCN)C(=O)N[C@@H](CC2CCCCC2)C(=O)N[C@@H](C(C)C)C(=O)N[C@@H]([C@@H](C)O)C(=O)N1` [Compound 2009] ({CH2CO}-[Dap]Y(Carboxymethyl)D[Phe(3-Me)]V[Bip][Cit][Orn][dL][Dab][Cha]VTC[Dab]-NHEt; thioether N-14), the IC50 was 0.0058 µM.

As to `Cc1cccc(C[C@@H]2NC(=O)[C@H](CC(=O)O)NC(=O)[C@H](Cc3ccc(OCC(=O)O)cc3)NC(=O)[C@H](CN)NC(=O)CSC[C@@H](C(=O)N[C@@H](CCN)C(N)=O)NC(=O)[C@H]([C@@H](C)O)NC(=O)[C@H](C(C)C)NC(=O)[C@H](CC3CCCCC3)NC(=O)[C@H](CCN)NC(=O)[C@@H](CC(C)C)NC(=O)[C@H](CCCN)NC(=O)[C@H](CCCNC(N)=O)NC(=O)[C@H](Cc3ccc(-c4ccccc4)cc3)NC(=O)[C@H](C(C)C)NC2=O)c1` [Compound 2010] ({CH2CO}-[Dap]Y(Carboxymethyl)D[Phe(3-Me)]V[Bip][Cit][Orn][dL][Dab][Cha]VTC[Dab]-NH2; thioether N-14), the IC50 was 0.0103 µM. In the case of `Cc1cccc(C[C@@H]2NC(=O)[C@H](CC(=O)O)NC(=O)[C@H](Cc3ccc(OCC(=O)O)cc3)NC(=O)[C@H](CN)NC(=O)CSC[C@@H](C(=O)N[C@@H](CCCN)C(N)=O)NC(=O)[C@H]([C@@H](C)O)NC(=O)[C@H](C(C)C)NC(=O)[C@H](CC3CCCCC3)NC(=O)[C@H](CCN)NC(=O)[C@@H](CC(C)C)NC(=O)[C@H](CCCN)NC(=O)[C@H](CCCNC(N)=O)NC(=O)[C@H](Cc3ccc(-c4ccccc4)cc3)NC(=O)[C@H](C(C)C)NC2=O)c1` [Compound 2011] ({CH2CO}-[Dap]Y(Carboxymethyl)D[Phe(3-Me)]V[Bip][Cit][Orn][dL][Dab][Cha]VTC[Orn]-NH2; thioether N-14), the IC50 was determined as 0.0119 µM.

As to `C#CCC[C@@H]1NC(=O)[C@H](CC2CCCCC2)NC(=O)[C@H](CCN)NC(=O)[C@@H](CC(C)C)NC(=O)[C@H](CCCN)NC(=O)[C@H](C(C)C)NC(=O)[C@H](Cc2ccc(-c3ccccc3)cc2)NC(=O)[C@H](C(C)C)NC(=O)[C@H](Cc2cccc(C)c2)NC(=O)[C@H](CC(=O)O)NC(=O)[C@H](Cc2ccc(OCC(=O)O)cc2)NC(=O)[C@H](CN)NC(=O)CSC[C@@H](C(N)=O)NC(=O)[C@H]([C@@H](C)O)NC1=O` [Compound 2012] ({CH2CO}-[Dap]Y(Carboxymethyl)D[Phe(3-Me)]V[Bip]V[Orn][dL][Dab][Cha][Hpra]TC-NH2; thioether N-14), the IC50 is 0.0158 µM.

Values taken from US20250163104A1, “MACROCYCLIC IMMUNOMODULATORS” (priority 2021, published 2025).
